Measured values from patent US20200121579A1, “TOPICAL COMPOSITIONS” (DSM IP ASSETS B.V., priority 2017, published 2020).

Experiments:
Propionibacterium acnes = assay: Antimicrobial efficacy in analogy to challenge test NF EN ISO11930, P. acnes; assay type: cell-based; details: 0.1 wt.-% single active; for Propionibacterium acnes colony count: 24 h after contamination, 22° C., initial count 310000 cfu/ml
Text: The wells are contaminated with either Propionibacterium acnes or Escherichia coli at 2.5*10^5 to 5.6*10^5 cfu/ml to obtain the initial contamination as outlined in table 1. […] (The term “Log reduction” is a well-known mathematical term used to show the relative number of cells, germs, microbes, etc., reduced in or on something, e.g. a 2 log reduction means the number of microbes is 100 times smaller and a 3 log reduction means the number of microbes is 1000 times smaller).

Escherichia coli = assay: Antimicrobial efficacy in analogy to challenge test NF EN ISO11930, E. coli; assay type: cell-based; details: 0.1 wt.-% single active; for Escherichia coli colony count: 24 h after contamination, 22° C., initial count 250000 cfu/ml
Text: The wells are contaminated with either Propionibacterium acnes or Escherichia coli at 2.5*10^5 to 5.6*10^5 cfu/ml to obtain the initial contamination as outlined in table 1.

SMILES	Propionibacterium acnes colony count (Propionibacterium acnes) [cfu/ml]	Log reduction (Propionibacterium acnes; 24 h vs 0 h)	Δ (change of microorganism count t = 24 h vs t = 0) (Escherichia coli)	Escherichia coli colony count (Escherichia coli) [cfu/ml]
CC(=O)OC/C=C(C)/C=C/C=C(C)/C=C/C1=C(C)CCCC1(C)C [retinyl acetate]	3000	2	+112%	530000
O=C(CO)[C@H](O)CO (racemic) [erythrulose]	3000		+112%	530000
